Consider 13 molecules from ChEMBL document CHEMBL1909046, “DrugMatrix in vitro pharmacology data”.

Assay [1] is described as follows: DRUGMATRIX: GABAA, Muscimol, Central radioligand binding (ligand: [3H] Muscimol). In kind it is cell membranes, Rattus norvegicus, Wistar, Brain, Membrane. Conditions: Not Active = under 50% inhibition at 10 µM.
The target in assay [2] is T1, Angiotensin-converting enzyme (Oryctolagus cuniculus, UniProt P12822).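 Also: enzymatic inhibition of angiotensin-converting enzyme measured with FAPGG as the substrate; in other assays of this panel Not Active means under 50% inhibition at 10 µM.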
T1 sequence (P12822 whole entry): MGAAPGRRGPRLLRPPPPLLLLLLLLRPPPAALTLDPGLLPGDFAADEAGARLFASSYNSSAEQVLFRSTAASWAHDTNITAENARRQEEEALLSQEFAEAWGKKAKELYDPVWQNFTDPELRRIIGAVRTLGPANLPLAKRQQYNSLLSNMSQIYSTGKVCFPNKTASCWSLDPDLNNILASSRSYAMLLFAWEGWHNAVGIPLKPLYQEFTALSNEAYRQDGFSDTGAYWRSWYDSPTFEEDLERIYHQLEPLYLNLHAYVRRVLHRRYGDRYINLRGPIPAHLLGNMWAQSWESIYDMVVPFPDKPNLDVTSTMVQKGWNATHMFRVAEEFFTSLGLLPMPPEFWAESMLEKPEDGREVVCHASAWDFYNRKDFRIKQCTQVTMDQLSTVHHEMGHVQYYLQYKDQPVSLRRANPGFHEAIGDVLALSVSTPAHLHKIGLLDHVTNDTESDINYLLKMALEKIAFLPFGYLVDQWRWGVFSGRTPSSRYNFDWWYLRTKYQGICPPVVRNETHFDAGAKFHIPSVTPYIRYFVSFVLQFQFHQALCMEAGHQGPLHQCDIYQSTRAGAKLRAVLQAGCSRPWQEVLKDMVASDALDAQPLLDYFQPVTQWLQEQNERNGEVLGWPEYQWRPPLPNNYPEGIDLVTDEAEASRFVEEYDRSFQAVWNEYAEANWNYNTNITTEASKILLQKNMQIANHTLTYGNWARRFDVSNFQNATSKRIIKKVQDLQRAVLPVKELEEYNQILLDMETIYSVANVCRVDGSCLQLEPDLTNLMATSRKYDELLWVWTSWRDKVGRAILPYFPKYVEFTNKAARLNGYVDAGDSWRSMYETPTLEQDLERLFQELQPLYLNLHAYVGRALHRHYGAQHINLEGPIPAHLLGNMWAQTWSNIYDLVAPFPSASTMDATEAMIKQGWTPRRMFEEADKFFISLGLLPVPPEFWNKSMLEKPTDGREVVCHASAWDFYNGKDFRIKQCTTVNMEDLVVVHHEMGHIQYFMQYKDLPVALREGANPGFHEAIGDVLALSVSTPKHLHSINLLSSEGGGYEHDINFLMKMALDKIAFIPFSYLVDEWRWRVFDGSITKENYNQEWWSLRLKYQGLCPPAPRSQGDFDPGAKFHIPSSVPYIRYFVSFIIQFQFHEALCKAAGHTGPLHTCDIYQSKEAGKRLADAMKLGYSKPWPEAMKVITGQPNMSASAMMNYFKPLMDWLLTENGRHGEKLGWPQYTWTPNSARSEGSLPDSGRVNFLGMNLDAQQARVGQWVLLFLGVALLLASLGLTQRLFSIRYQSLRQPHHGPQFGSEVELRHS
In kind it is tissue-based, Lung.

Another assay deals with Carbonic anhydrase 2 (Homo sapiens, UniProt P00918). Put plainly: DRUGMATRIX: Carbonic Anhydrase II enzyme inhibition (substrate: 4-Nitrophenyl acetate (4-NPA)). Type of assay: tissue-based, Erythrocyte. Conditions: erythrocyte; Not Active = under 50% inhibition at 10 µM.
In assay [3] the target is T2, Vasoactive intestinal polypeptide receptor 1 (Homo sapiens, UniProt P32241). Also: in other assays of this panel Not Active means under 50% inhibition at 10 µM.
T2 sequence (P32241 whole entry): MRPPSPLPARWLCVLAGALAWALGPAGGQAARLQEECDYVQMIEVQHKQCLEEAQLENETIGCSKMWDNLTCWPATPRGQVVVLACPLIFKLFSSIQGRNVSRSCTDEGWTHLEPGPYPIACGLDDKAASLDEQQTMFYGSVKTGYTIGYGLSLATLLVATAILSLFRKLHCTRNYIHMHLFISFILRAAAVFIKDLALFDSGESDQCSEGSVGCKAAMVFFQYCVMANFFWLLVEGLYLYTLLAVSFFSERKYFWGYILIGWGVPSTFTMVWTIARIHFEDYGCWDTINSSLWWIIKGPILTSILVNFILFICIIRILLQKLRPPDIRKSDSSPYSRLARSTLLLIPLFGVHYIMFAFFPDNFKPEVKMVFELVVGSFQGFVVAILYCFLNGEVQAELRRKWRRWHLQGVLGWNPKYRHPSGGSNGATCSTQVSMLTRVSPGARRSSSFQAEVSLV
In kind it is cell membranes, Membrane. Conditions: ht-29.

Assay [4] addresses T3, Muscarinic acetylcholine receptor M4 (Homo sapiens, UniProt P08173).
T3 sequence (P08173 whole entry): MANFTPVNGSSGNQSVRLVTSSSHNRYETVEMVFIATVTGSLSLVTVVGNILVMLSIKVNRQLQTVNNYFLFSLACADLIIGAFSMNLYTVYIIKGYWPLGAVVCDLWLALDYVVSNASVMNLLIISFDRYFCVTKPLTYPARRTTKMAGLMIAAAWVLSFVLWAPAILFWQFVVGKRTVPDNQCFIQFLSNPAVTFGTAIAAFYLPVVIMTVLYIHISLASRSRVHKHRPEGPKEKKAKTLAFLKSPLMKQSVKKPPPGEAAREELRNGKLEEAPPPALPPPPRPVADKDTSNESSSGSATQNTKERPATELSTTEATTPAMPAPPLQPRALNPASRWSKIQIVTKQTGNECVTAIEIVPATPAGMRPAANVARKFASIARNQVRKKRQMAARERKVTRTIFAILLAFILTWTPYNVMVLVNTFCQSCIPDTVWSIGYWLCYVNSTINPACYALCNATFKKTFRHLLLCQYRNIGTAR
Type of assay: cell membranes, CHO-K1, Membrane.

Assay [5] addresses 5-hydroxytryptamine receptor 6 (Homo sapiens, UniProt P50406). In kind it is cell membranes, HeLa, Membrane.
The nature of assay [6]: DRUGMATRIX: Serotonin (5-Hydroxytryptamine) 5-HT3 radioligand binding (ligand: [3H] GR-65630). In kind it is cell membranes, Membrane. The following applies: hek293; Not Active = under 50% inhibition at 10 µM.

Sequence of 5-hydroxytryptamine receptor 6 (P50406 whole entry): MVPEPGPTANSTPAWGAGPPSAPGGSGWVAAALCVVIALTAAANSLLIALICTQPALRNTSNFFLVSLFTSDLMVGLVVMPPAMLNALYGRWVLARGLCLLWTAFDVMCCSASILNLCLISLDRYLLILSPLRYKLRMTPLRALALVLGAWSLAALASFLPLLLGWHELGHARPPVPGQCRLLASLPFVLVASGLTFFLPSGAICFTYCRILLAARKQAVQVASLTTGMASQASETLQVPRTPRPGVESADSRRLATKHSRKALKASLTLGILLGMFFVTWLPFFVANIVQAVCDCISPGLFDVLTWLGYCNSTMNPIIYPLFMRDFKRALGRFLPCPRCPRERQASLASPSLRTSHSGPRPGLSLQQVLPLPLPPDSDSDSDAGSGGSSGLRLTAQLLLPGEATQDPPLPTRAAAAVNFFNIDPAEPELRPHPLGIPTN

Regarding `C[C@H]1O[C@@H](O[C@H]2[C@@H](O)C[C@H](O[C@H]3[C@@H](O)C[C@H](O[C@H]4CC[C@@]5(C)[C@H](CC[C@@H]6[C@@H]5C[C@@H](O)[C@]5(C)[C@@H](C7=CC(=O)OC7)CC[C@]65O)C4)O[C@@H]3C)O[C@@H]2C)C[C@H](O)[C@@H]1O` [DIGOXIN], the 50% inhibitory concentration (IC50) entry (in assay [1]; in assay [2]; against Carbonic anhydrase 2; in assay [3]; in assay [4] (cho-k1); in assay [5] (hela)) was “Not Active” throughout. In addition, the concentration for half-maximal inhibition (IC50) entry in assay [6] was “Not Active”. Besides, the inhibition constant (Ki) entry in assay [1] and in assay [6] was “Not Active” in each case.
For the molecule `CN(C)C(=O)Oc1cc(OC(=O)N(C)C)cc(C(O)CNC(C)(C)C)c1` (stereo unspecified) [BAMBUTEROL], the IC50 result (in assay [1]; in assay [2]; against Carbonic anhydrase 2; in assay [3]; in assay [4] (cho-k1); in assay [5] (hela)) was “Not Active” in each case. Moreover, the half-maximal inhibitory concentration (IC50) entry in assay [6] is “Not Active”. The Ki result in assay [1] and in assay [6] was “Not Active” in each case.
Take `CC(C)[C@H]1C(=O)N2CCC[C@H]2[C@]2(O)O[C@](NC(=O)[C@@H]3C=C4c5cccc6[nH]cc(c56)C[C@H]4N(C)C3)(C(C)C)C(=O)N12` [ERGOCORNINE]: the 50% inhibitory concentration (IC50) result is “Not Active” in assay [1]; “Not Active” in assay [2]; “Not Active” at Carbonic anhydrase 2; “Not Active” in assay [3]; “Not Active” in assay [4] (cho-k1); 15 nM in assay [5] (read-out: IC50). Besides, in assay [6], the IC50 entry was “Not Active”. Also, the Ki result was “Not Active” in assay [1], 7.09 nM in assay [5] (read-out: Ki) and “Not Active” in assay [6].
As for `CN(C)CCCN1c2ccccc2Sc2ccccc21` [PROMAZINE], the concentration for half-maximal inhibition (IC50) entry in assay [1] is “Not Active”; in assay [2] it was “Not Active”; against Carbonic anhydrase 2 it was “Not Active”; in assay [3], “Not Active”; in assay [4] (read-out: IC50), 299 nM; in assay [5] (read-out: IC50), 274 nM. Also, the concentration for half-maximal inhibition (IC50) result in assay [6] is given as “Not Active”. Moreover, the Ki result was “Not Active” in assay [1], 42 nM in assay [4] (read-out: Ki), 127 nM in assay [5] (read-out: Ki) and “Not Active” in assay [6].
Regarding `C[C@](N)(Cc1ccc(O)c(O)c1)C(=O)O` [METHYLDOPA], the IC50 entry (in assay [1]; in assay [2]; at Carbonic anhydrase 2; in assay [3]; in assay [4] (cho-k1); in assay [5] (hela)) was “Not Active” in each case. In addition, the IC50 entry in assay [6] was “Not Active”. Also, the inhibitory constant (Ki) result in assay [1] and in assay [6] was “Not Active” throughout.
Regarding LEAD (II) ACETATE, the half-inhibitory concentration (IC50) entry (in assay [1]; in assay [2]; at Carbonic anhydrase 2; in assay [3]; in assay [4] (cho-k1); in assay [5] (hela)) was “Not Active” each time. The IC50 entry in assay [6] is given as “Not Active”. The Ki entry (in assay [1]; in assay [2]; on Carbonic anhydrase 2; in assay [3]; in assay [4] (cho-k1); in assay [5] (hela)) was “Not Active” throughout. The inhibitory constant (Ki) result in assay [6] is “Not Active”.
For `CC(O)CO` (stereo unspecified) [PROPYLENE GLYCOL], the concentration for half-maximal inhibition (IC50) entry (in assay [1]; in assay [2]; against Carbonic anhydrase 2; in assay [3]; in assay [4] (cho-k1); in assay [5] (hela)) was “Not Active” each time. In assay [6], the IC50 entry is “Not Active”. In addition, the inhibitory constant (Ki) result in assay [1] and in assay [6] was “Not Active” throughout.
For `CCCC1O[C@@H]2C[C@H]3[C@@H]4CCC5=CC(=O)C=C[C@]5(C)[C@H]4[C@@H](O)C[C@]3(C)[C@]2(C(=O)CO)O1` (stereo partly specified) [BUDESONIDE], the IC50 result (in assay [1]; in assay [2]; against Carbonic anhydrase 2; in assay [3]; in assay [4] (cho-k1); in assay [5] (hela)) was “Not Active” throughout. Moreover, in assay [6], the 50% inhibitory concentration (IC50) result is listed as “Not Active”. The Ki entry in assay [1] and in assay [6] was “Not Active” each time.
In the case of `CC1Cc2ccccc2N1NC(=O)c1ccc(Cl)c(S(N)(=O)=O)c1` (stereo unspecified) [INDAPAMIDE], the half-maximal inhibitory concentration (IC50) result (in assay [1]; in assay [2]; at Carbonic anhydrase 2; in assay [3]; in assay [4] (cho-k1); in assay [5] (hela)) was “Not Active” throughout. The IC50 entry in assay [6] is on record as “Not Active”. Besides, the inhibition constant (Ki) result in assay [1] and in assay [6] was “Not Active” throughout.
`CCC1(c2ccc(N)cc2)CCC(=O)NC1=O` (stereo unspecified) [AMINOGLUTETHIMIDE]: the IC50 result (in assay [1]; in assay [2]; against Carbonic anhydrase 2; in assay [3]; in assay [4] (cho-k1); in assay [5] (hela)) was “Not Active” throughout. The IC50 entry in assay [6] was “Not Active”. The Ki entry in assay [1] and in assay [6] was “Not Active” throughout.
Take `CNCCCN1c2ccccc2CCc2ccccc21` [DESIPRAMINE]: the half-inhibitory concentration (IC50) entry (in assay [1]; in assay [2]; against Carbonic anhydrase 2; in assay [3]; in assay [4] (cho-k1); in assay [5] (hela)) was “Not Active” in each case. For the same molecule, the IC50 result in assay [6] is “Not Active”. The Ki result in assay [1] and in assay [6] was “Not Active” each time.
Take `Cc1ccccc1N1C(=O)c2cc(S(N)(=O)=O)c(Cl)cc2NC1C` (stereo unspecified) [METOLAZONE]: the concentration for half-maximal inhibition (IC50) result (in assay [1]; in assay [2]; against Carbonic anhydrase 2; in assay [3]; in assay [4] (cho-k1); in assay [5] (hela)) was “Not Active” each time. The IC50 entry in assay [6] is listed as “Not Active”. Also, the Ki result in assay [1] and in assay [6] was “Not Active” each time.
As for `C1CCC(C(CC2CCCCN2)C2CCCCC2)CC1` (stereo unspecified) [PERHEXILINE], the IC50 result in assay [1] was “Not Active”; in assay [2], “Not Active”; against Carbonic anhydrase 2 it was “Not Active”; in assay [3], “Not Active”; in assay [4] (read-out: IC50) it was 3590 nM; in assay [5] (hela) it was “Not Active”. The concentration for half-maximal inhibition (IC50) result in assay [6] is “Not Active”. Moreover, the inhibitory constant (Ki) result was “Not Active” in assay [1], 501 nM in assay [4] (read-out: Ki) and “Not Active” in assay [6].
